Test results: ChEMBL document CHEMBL1201862, “PubChem BioAssay data set” (2004)
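Test compounds were applied to cells in 96-well plates for 48 hours at 5 doses. GI50: concentration for 50% inhibition of growth.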 Activity calls are given as the source filed them. Rule as the data show it: active = GI50 up to about 1.1 µM and inactive = higher.

Experiments:
Test in all cases: NCI anticancer screen, dose series, 48 h
CCRF-CEM = tested on: CCRF-CEM
UACC-62 = tested on: UACC-62
HT-29 = tested on: HT-29
A498 = tested on: A498
MCF7 = tested on: MCF7
SK-MEL-5 = tested on: SK-MEL-5
OVCAR-3 = tested on: OVCAR-3
HOP-62 = tested on: HOP-62
KM12 = tested on: KM12
NCI-H226 = tested on: NCI-H226
SF-539 = tested on: SF-539
NCI-H23 = tested on: NCI-H23
SK-MEL-2 = tested on: SK-MEL-2
OVCAR-5 = tested on: OVCAR-5
COLO 205 = tested on: COLO 205
UO-31 = tested on: UO-31
T47D = tested on: T47D
NCI/ADR-RES = tested on: NCI/ADR-RES
LOX IMVI = tested on: LOX IMVI
SW-620 = tested on: SW-620

SMILES | GI50 (CCRF-CEM) | GI50 (UACC-62) | GI50 (HT-29) | GI50 (A498) | GI50 (MCF7) | GI50 (SK-MEL-5) | GI50 (OVCAR-3) | GI50 (HOP-62) | GI50 (KM12) | GI50 (NCI-H226) | GI50 (SF-539) | GI50 (NCI-H23) | GI50 (SK-MEL-2) | GI50 (OVCAR-5) | GI50 (COLO 205) | GI50 (UO-31) | GI50 (T47D) | GI50 (NCI/ADR-RES) | GI50 (LOX IMVI) | GI50 (SW-620)
Cc1cc(N(CCC#N)CCC#N)ccc1C(/N=N/c1ccccc1)=N\NC(=O)c1ccccc1 | 18.6 µM (inactive) | 2.77 µM (inactive) | 16.8 µM (inactive) | 24.6 µM (inactive) | 18.6 µM (inactive) | 18.7 µM (inactive) | 30.3 µM (inactive) | 55.8 µM (inactive) | 18.1 µM (inactive) | 43.4 µM (inactive) | 17.4 µM (inactive) | 30.5 µM (inactive) | 77.1 µM (inactive) | 86.9 µM (inactive) | 20.4 µM (inactive) | 17.9 µM (inactive) | 5.2 µM (inactive) | 20.2 µM (inactive) | – | –
N=C1C(=N)c2ccccc2-c2ccccc21 | 0.376 µM (active) | 1.39 µM (inactive) | 1.83 µM (inactive) | 2.24 µM (inactive) | 0.792 µM (active) | 0.308 µM (active) | 0.354 µM (active) | 1.67 µM (inactive) | 1.85 µM (inactive) | 1.82 µM (inactive) | 0.787 µM (active) | 0.6 µM (active) | 1.55 µM (inactive) | 2 µM (inactive) | 1.73 µM (inactive) | 1.61 µM (inactive) | 0.419 µM (active) | 0.492 µM (active) | 0.31 µM (active) | 1 µM (active)
CCOC(=O)/C(=C\n1c(=O)sc2ccccc21)C(=O)c1ccccc1 | > 100 µM (inactive) | > 100 µM (inactive) | > 100 µM (inactive) | > 100 µM (inactive) | > 100 µM (inactive) | 54.2 µM (inactive) | – | > 100 µM (inactive) | > 100 µM (inactive) | > 100 µM (inactive) | > 100 µM (inactive) | > 100 µM (inactive) | > 100 µM (inactive) | > 100 µM (inactive) | > 100 µM (inactive) | 26 µM (inactive) | 22.4 µM (inactive) | > 100 µM (inactive) | > 100 µM (inactive) | > 100 µM (inactive)
COc1ccccc1CNC(=O)[C@H](Cc1ccc(O)cn1)NC(C)=O | > 100 µM (inactive) | > 100 µM (inactive) | > 100 µM (inactive) | > 100 µM (inactive) | > 100 µM (inactive) | > 100 µM (inactive) | > 100 µM (inactive) | > 100 µM (inactive) | > 100 µM (inactive) | > 100 µM (inactive) | > 100 µM (inactive) | > 100 µM (inactive) | > 100 µM (inactive) | > 100 µM (inactive) | > 100 µM (inactive) | > 100 µM (inactive) | > 100 µM (inactive) | > 100 µM (inactive) | > 100 µM (inactive) | > 100 µM (inactive)
